Results published in publication PMC8213057, “Targeting ALK2: An Open Science Approach to Developing Therapeutics for the Treatment of Diffuse Intrinsic Pontine Glioma” (Journal of Medicinal Chemistry, 2020).

Experiments:
GLK/MAP4K3 = target: T1, GLK/MAP4K3 (Homo sapiens, UniProt Q8IVH8); assay: biochemical; conditions: read-out: % enzyme activity, 1 μM; Run 1, Run 2
T1 sequence (Q8IVH8 1-894): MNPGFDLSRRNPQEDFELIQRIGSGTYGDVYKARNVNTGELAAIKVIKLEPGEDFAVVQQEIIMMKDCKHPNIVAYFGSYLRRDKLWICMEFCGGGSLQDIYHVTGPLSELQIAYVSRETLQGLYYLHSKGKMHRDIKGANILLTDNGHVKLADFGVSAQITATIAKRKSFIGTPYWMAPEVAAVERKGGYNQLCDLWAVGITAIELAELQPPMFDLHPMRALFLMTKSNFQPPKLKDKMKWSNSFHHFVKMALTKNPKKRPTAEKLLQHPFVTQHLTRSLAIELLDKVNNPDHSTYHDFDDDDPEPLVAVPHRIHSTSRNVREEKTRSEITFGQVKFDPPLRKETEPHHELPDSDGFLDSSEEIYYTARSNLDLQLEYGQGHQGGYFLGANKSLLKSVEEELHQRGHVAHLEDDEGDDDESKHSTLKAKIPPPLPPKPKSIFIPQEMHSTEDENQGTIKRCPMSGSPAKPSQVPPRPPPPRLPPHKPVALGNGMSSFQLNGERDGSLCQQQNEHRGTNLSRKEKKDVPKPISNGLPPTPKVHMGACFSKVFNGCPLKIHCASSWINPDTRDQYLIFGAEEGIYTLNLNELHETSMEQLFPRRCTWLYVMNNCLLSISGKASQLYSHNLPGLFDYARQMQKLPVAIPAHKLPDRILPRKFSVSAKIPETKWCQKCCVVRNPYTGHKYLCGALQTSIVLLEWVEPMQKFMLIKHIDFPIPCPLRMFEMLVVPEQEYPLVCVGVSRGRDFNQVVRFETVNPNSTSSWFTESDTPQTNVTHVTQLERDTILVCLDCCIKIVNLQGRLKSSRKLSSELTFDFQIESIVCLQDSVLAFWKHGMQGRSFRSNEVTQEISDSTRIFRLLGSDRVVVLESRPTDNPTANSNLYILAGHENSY

CLK4 = CLK4 (Homo sapiens, UniProt Q9HAZ1); assay: biochemical; conditions: read-out: % enzyme activity, 1 μM; Run 1, Run 2
Sequence of CLK4 (Q9HAZ1 whole entry): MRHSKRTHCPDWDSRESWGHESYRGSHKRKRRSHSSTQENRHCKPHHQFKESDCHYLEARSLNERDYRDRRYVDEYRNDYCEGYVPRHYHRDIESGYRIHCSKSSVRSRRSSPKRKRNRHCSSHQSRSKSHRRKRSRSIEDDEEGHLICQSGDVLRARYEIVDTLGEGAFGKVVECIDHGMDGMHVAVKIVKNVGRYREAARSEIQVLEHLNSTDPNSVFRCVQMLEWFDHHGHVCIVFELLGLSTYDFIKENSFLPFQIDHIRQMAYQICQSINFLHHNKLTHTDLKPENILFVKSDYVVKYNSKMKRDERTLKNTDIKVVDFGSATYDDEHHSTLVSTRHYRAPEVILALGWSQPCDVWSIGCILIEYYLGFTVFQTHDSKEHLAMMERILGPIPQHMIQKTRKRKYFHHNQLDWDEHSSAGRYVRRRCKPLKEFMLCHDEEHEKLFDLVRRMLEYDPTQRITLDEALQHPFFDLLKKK

PKN2/PRK2 = PKN2/PRK2 (Homo sapiens, UniProt Q16513); assay: biochemical; conditions: read-out: % enzyme activity, 1 μM; Run 1, Run 2
Sequence of PKN2/PRK2 (Q16513 whole entry): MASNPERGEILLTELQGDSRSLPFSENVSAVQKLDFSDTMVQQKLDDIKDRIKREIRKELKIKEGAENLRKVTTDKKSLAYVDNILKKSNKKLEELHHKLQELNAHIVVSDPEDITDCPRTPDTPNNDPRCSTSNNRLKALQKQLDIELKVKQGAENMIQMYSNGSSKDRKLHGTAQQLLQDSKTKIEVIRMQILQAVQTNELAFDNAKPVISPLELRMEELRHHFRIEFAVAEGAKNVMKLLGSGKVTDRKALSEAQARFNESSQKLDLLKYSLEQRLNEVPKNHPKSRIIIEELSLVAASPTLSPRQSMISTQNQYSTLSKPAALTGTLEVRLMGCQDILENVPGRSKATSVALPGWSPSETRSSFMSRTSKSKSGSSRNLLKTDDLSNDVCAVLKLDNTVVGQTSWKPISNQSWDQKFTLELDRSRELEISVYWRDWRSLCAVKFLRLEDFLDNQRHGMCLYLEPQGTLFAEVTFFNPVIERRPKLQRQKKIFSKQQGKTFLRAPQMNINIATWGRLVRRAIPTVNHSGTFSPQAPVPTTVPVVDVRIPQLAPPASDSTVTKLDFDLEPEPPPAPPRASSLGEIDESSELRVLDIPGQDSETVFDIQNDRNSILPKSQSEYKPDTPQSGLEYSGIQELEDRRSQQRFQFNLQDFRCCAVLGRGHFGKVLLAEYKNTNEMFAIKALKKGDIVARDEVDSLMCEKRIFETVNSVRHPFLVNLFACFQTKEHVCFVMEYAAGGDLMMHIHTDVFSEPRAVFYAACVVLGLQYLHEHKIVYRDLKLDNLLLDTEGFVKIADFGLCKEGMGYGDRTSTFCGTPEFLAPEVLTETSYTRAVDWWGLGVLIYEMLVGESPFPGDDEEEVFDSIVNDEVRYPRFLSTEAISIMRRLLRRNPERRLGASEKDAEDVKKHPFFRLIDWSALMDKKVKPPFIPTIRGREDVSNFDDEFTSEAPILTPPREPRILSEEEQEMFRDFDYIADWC

PKCiota = target: T2, PKCiota (Homo sapiens, UniProt P41743); assay: biochemical; conditions: read-out: % enzyme activity, 1 μM; Run 1, Run 2
T2 sequence (P41743 1-596): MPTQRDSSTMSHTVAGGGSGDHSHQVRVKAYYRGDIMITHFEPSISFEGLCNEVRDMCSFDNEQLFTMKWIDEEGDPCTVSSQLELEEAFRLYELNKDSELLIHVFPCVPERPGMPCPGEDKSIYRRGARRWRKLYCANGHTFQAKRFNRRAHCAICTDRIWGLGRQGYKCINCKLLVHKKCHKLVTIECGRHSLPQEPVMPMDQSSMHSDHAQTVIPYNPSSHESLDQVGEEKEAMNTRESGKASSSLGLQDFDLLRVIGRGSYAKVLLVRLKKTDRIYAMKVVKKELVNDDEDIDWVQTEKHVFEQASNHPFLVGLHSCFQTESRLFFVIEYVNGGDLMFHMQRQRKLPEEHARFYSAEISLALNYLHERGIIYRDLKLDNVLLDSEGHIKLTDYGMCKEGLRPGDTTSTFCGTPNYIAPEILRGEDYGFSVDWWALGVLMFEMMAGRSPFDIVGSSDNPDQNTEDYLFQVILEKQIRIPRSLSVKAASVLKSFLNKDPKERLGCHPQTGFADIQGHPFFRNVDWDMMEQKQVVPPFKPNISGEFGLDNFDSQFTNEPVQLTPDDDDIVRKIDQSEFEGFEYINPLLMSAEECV

SNARK/NUAK2 = target: T3, SNARK/NUAK2 (Homo sapiens, UniProt Q9H093); conditions: 1 μM; Run 1, Run 2
T3 sequence (Q9H093 1-628): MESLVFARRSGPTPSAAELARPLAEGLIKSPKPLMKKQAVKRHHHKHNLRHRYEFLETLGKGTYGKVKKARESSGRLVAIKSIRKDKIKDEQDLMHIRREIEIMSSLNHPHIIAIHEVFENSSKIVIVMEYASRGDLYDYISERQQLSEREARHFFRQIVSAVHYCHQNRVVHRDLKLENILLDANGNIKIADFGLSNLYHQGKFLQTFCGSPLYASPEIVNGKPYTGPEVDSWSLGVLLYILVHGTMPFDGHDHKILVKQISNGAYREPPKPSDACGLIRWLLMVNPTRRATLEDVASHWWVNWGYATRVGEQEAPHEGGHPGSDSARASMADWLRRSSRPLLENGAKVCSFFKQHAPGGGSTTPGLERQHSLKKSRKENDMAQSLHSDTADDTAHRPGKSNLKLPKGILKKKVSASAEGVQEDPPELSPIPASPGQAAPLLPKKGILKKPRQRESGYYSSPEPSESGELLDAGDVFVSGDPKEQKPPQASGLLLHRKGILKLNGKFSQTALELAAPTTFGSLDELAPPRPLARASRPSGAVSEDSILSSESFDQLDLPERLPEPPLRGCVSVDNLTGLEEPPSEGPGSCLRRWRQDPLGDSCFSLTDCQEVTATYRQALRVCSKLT

HIPK4 = target: T4, HIPK4 (Homo sapiens, UniProt Q8NE63); assay: biochemical; conditions: read-out: % enzyme activity, 1 μM; Run 1, Run 2
T4 sequence (Q8NE63 1-616): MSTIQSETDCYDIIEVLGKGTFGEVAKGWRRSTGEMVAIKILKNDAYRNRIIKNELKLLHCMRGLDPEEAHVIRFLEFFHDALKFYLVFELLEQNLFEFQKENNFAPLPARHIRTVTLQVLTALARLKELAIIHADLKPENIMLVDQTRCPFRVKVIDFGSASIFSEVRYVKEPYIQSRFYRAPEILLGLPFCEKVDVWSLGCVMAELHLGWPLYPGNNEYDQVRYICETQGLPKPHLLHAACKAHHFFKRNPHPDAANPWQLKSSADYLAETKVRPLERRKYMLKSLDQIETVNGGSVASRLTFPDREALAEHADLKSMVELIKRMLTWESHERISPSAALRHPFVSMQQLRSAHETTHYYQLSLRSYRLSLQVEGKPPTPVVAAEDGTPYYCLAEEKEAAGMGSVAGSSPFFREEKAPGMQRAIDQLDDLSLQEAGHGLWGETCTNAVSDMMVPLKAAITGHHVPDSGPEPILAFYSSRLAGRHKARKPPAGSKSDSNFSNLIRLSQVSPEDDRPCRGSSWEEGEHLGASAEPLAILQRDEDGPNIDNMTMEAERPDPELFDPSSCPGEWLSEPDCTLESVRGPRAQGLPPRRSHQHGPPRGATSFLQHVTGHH

| SMILES | remaining activity at 1 µM (GLK/MAP4K3) [%] | remaining activity at 1 µM (CLK4) [%] | remaining activity at 1 µM (PKN2/PRK2) [%] | remaining activity at 1 µM (PKCiota) [%] | % enzyme activity (SNARK/NUAK2) [%] | remaining activity at 1 µM (HIPK4) [%] |
| --- | --- | --- | --- | --- | --- | --- |
| COc1cc(-c2cncc(-c3ccc(N4CCN(C)CC4)cc3)c2C)cc(F)c1C(N)=O [Compound 26a, 2-Fluoro-6-methoxy-4-(4-methyl-5-(4-(4-methylpiperazin-1-yl)phenyl)pyridin-3-yl)benzamide] | 88.4 | 88.9 | 94.5 | 107 | 93.71 | 104 |
| COc1cc(-c2cncc(-c3ccc(N4C[C@@H](C)N(C)[C@@H](C)C4)cc3)c2C)cc(F)c1C(N)=O [Compound 26c, 2-Fluoro-6-methoxy-4-(4-methyl-5-(4-((3R,5S)-3,4,5-trimethylpiperazin-1-yl)phenyl)pyridin-3-yl)benzamide] | 90.3 | 92.6 | 95.9 | 99.1 | 94.38 | 101 |
